Experiment: gradient 5% acetonitrile 3 min, to 50% in 2 min, to 85% in 15 min, held 3 min, 100 µL/min
Details: column: Zorbax Extend-C18 2.1 x 50 mm; eluents: water / acetonitrile, 0.1% formic acid
Procedure, shortened: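 Standards, all pure, were combined into mixtures of ~100 molecules and run at 100 μL/min on a Zorbax Extend-C18 column (2.1 × 50 mm, 1.8 μm) with water and acetonitrile, each containing 0.1% formic acid. A coupled quadrupole time-of-flight mass spectrometer operated in positive and negative ionization mode. Retention time values come from computationally picked adduct peaks, each inspected manually.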

| RP-LC retention time [s] | Compound |
| --- | --- |
| 612 | O=C(CCC(=O)N1CCN(c2nc3cccnc3s2)CC1)N1CCCC1 |
| 864 | Cc1c(Cl)cccc1NC(=O)N1C[C@@H](F)C[C@H]1C(=O)N1CCc2ccccc2C1 |
| 583 | O=C(NCc1ccccc1Cl)C(=O)N1CCN(Cc2ccc3c(c2)OCO3)CC1 |
| 571 | CCCCC(=O)Nc1ccc2nc(N3CCN(CC)CC3)cc(C(=O)O)c2c1 |
| 1260 | O=C(Cc1ccc(S(=O)(=O)N2CCN(c3ccccn3)CC2)s1)N1CCOCC1 |
| 624 | Cc1cc(C)n(-c2ccnc(N3CCN(CC(=O)NC(C)C)CC3)n2)n1 |
| 1160 | Cc1cc(SCC(=O)N2CCN(c3ccccc3)CC2)nc(-c2ccc(F)cc2)n1 |
| 648 | CCN(CCNC(=O)CCc1cc2cc(C)ccc2[nH]c1=O)Cc1ccccc1 |
| 1090 | Cc1ccc2c(c1)N(S(C)(=O)=O)CCC(C(=O)Nc1ccc(C)c(Cl)c1)O2 (centres undefined) |
| 746 | CCN1CCCC1CNS(=O)(=O)c1ccccc1-c1nc(-c2ccc(C)cc2)no1 (centres undefined) |
| 732 | Cn1cc(S(=O)(=O)N2CCC(C(=O)N3CCCCCC3)CC2)cc1C(=O)N1CCCC1 |
| 970 | Cc1ccc(-c2nnc(-c3nn(C)c4c3CN(S(=O)(=O)c3ccccc3F)CC4)o2)cc1 |
| 620 | Cn1c(=O)c2nc(SCCC(=O)Nc3ccc(N4CCOCC4)cc3)n(C)c2n(C)c1=O |
| 663 | COc1ccc(C(O)CN2CCN(c3ccc(C)cc3)CC2)cc1 (centres undefined) |
| 798 | N#Cc1cc2c(nc1SCC(=O)N1CCOCC1)CCCC2 |
| 713 | CC(=O)N1CCc2cc(N3CC(C(=O)NCc4ccc(F)cc4Cl)CC3=O)ccc21 (centres undefined) |
| 665 | Cc1ccc2c(=O)c3c([nH]c2c1C)CCN(CC(=O)Nc1ccc(F)c(Cl)c1)C3 |
| 716 | CCCNc1cc(N2CCC(CCC(=O)NCc3cccc(C)c3)CC2)ncn1 |
| 788 | CCN1c2ccc(C)cc2C(=O)NC12CCN(C(=O)c1ccc(C(F)(F)F)cc1)CC2 |
| 692 | CCC1CCCCN1C(=O)c1cnc2nc(C)ccc2c1Nc1ccc(OC)cc1C (centres undefined) |

| RP-LC retention time [s] | Compound |
| --- | --- |
| 631 | Cc1ccc(CN2CCCn3nc(C(=O)NCCN4CCCCC4)cc3C2=O)cc1 |
| 811 | Cc1ccc(Nc2nc(C)cc(N3CCN(C(=O)Nc4ccc(F)c(Cl)c4)CC3)n2)cc1 |
| 648 | COc1ccc(N2CCN(c3nc(C(=O)N4CCN(CC(C)C)CC4)cs3)CC2)cc1 |
| 853 | Cc1cc(-c2nnc(NC(=O)NCc3ccc(Cl)cc3)o2)c(C)o1 |
| 1100 | CC1CCN(S(=O)(=O)c2ccc(-c3nnc(C(=O)N4CCCCCC4)o3)cc2)CC1 |
| 871 | CCC(C)NC(=O)c1cc(COc2ccc(NC(=O)CC(C)C)cc2)on1 (centres undefined) |
| 882 | O=C(NC1CCCCC1)N1CCc2nc(-c3ccc(F)cc3)ncc2C1 |
| 904 | CCOc1ccc(NC(=O)N2CCC3(CC2)NC(=O)c2ccc(Cl)cc2N3C)cc1 |
| 562 | Cc1nnc2cc(N3CCN(C(=O)Nc4cccc(Br)c4)CC3)cnn12 |
| 758 | O=S(=O)(Nc1ccc(Cn2cncn2)cc1)c1ccc(F)c(Cl)c1 |
| 718 | COC(=O)c1ncn2c1C(=O)N(c1cc(C)ccc1C)C(C)(C(=O)NC1CCCC1)C2 (centres undefined) |
| 777 | O=C(NCc1nc(-c2ccc(N3CCCCC3)cc2)no1)c1ccco1 |
| 714 | O=C(NC1CCN(c2cc(-c3ccc(F)cc3)[nH]n2)C1)c1ccccc1F (centres undefined) |
| 590 | CCCn1c(=O)c2cc(C(=O)N3CCN(Cc4ccccc4)CC3)nn2c2ccccc21 |
| 745 | Cc1cc(Cl)ccc1S(=O)(=O)N1CCC(n2cnnc2C)CC1 |
| 863 | CC1CCC2(CC1)NC(=O)N(CC(=O)NCCc1ccc(Cl)cc1)C2=O (centres undefined) |
| 724 | CCN(CC)C(=O)c1ccc2c(c1)N(CC(=O)NC1CCCCC1)C(=O)CO2 |
| 837 | CC(=O)N1CCc2sc(C(=O)N3CCN(c4ccc(Cl)cc4)CC3)cc2C1 |
| 799 | N#Cc1ccc(N2C=C(C(=O)N3CCCC3)S(=O)(=O)c3ccc(Cl)cc32)cc1 |
| 844 | O=C(CN1CCN(Cc2ccc(F)cc2)C1=O)NCc1ccc(F)cc1Cl |

Second part, the compound before the results:

| Compound | RP-LC retention time [s] |
| --- | --- |
| Cc1cc(Cl)ccc1OCc1nc(-c2ccc(NS(=O)(=O)c3cccs3)cc2)no1 | 1180 |
| Cc1cc(NC(=O)CN2C(=O)CCc3cc(Br)ccc32)c2ccccc2n1 | 684 |
| CC(C)(C)c1noc(-c2ccc(-n3cnc(C(=O)NCc4ccccc4F)c3)nc2)n1 | 1050 |
| Cc1sc2ccn(C)c(=O)c2c1C(=O)NCc1ccccc1Br | 834 |
| CCOc1ccccc1NC(=O)c1c(O)c2cccnc2n(-c2cccc(F)c2)c1=O | 1320 |
| COc1ccc(CN(Cc2ccccc2)Cc2cc(=O)n3ccc(C)cc3n2)cc1OC | 662 |
| COc1ccc(-c2noc(C3CCCN3C(=O)c3ccc(Cl)cc3OC)n2)cc1OC (centres undefined) | 934 |
| O=C(NCc1nc(-c2ccc(NS(=O)(=O)c3ccc(F)cc3)cc2)no1)c1cccs1 | 867 |
| CN1CCCC1c1nc(C2CN(C(=O)c3ccsc3)C2)no1 (centres undefined) | 567 |
| COc1ccccc1C1C2=C(CC(C)(C)CC2=O)Nc2ccccc2N1C(=O)CCC(=O)O (centres undefined) | 699 |
| COc1ccc(Nc2nc(-c3nnn(-c4cc(F)ccc4F)c3C)ns2)cc1 | 949 |
| COC(=O)c1ccc(NC(=O)N2CCN(c3nc4ccccc4nc3C(F)(F)F)CC2)cc1 | 1080 |
| CC(C)C(=O)Nc1ccc(C2(C(=O)NCc3ccccn3)CCC2)cc1 | 611 |
| Cc1ccc(Nc2c(-c3ccccc3)nc3ccc(Cl)cn23)cc1 | 787 |
| Cc1nnc(-c2c(S(=O)(=O)NCc3ccco3)c(C)n(C)c2C)o1 | 729 |
| Cc1nn(-c2nc(-c3ccc(F)cc3)cs2)c(C)c1CC(=O)Nc1ccccc1Cl | 1230 |
| Cc1nc(NC(=O)Cn2nc(-n3cccn3)ccc2=O)sc1C(=O)N(C)C | 585 |
| c1cn(-c2ccc(SC3CCCC3)nn2)cn1 | 604 |
| CN1C(=O)NC2(CCN(S(=O)(=O)c3cccs3)CC2)C1=O | 640 |
| COc1ccc(CC(=O)NCC(=O)Nc2nc3ccccc3[nH]2)c(Cl)c1 | 653 |
| COc1ccc(-n2ccnc(NC(=O)Nc3ccc(C)c(C)c3)c2=O)cc1OC | 955 |
| CCOC(=O)c1ccccc1NC(=O)CSc1nnc(NC(=O)C(C)(C)C)s1 | 929 |
| CC(NC(=O)c1ccccc1)c1nc(-c2cccc(-c3ccnn3C)c2)no1 (centres undefined) | 840 |
| CCCN(C)c1nccn2c(=O)n(CC(=O)Nc3ccc(Br)cc3)nc12 | 736 |
| CC(=O)Nc1cccc(NC(=O)C2CC(=O)N(c3n[nH]c4ccccc34)C2)c1 (centres undefined) | 625 |

| Compound | RP-LC retention time [s] |
| --- | --- |
| Cc1noc(-c2ccc(NC(=O)c3cc(=O)c4ccccc4o3)cc2)n1 | 790 |
| O=C(NC1CCN(c2cc(-c3cccs3)[nH]n2)C1)c1cccc(Br)c1 (centres undefined) | 796 |
| CC(=O)NCc1ccc(-c2noc(-c3cc(F)ccc3Cl)n2)s1 | 879 |
| Cc1cccc(-c2nnc(C)c(N3CCOCC3)n2)c1 | 645 |
| NS(=O)(=O)c1ccc(NC(=O)Cc2csc3nc(-c4ccccc4)cn23)cc1 | 650 |
| Cc1sc(NC(=O)CC(C)C)nc1-c1ccc2c(c1)NC(=O)CO2 | 822 |
| Cc1nn(C)c(C)c1S(=O)(=O)N1CCc2c(c(-c3nnc(-c4ccc(F)cc4)o3)nn2C)C1 | 805 |
| Cc1sc(NC(=O)CSc2nnc(COc3ccccc3)o2)nc1-c1ccccc1 | 877 |
| O=C1COc2ccc(Cl)cc2N1Cc1nc(-c2ccc3c(c2)OCO3)no1 | 1040 |
| COc1nn(C)cc1C(=O)Nc1cc(C)ns1 | 598 |
| Cc1cc(C)nc(N2CCN(C)CC2)n1 | 556 |
| c1ccc(COCCc2noc(C3CN(Cc4ccncc4)C3)n2)cc1 | 605 |
| CCc1nc(-n2cccc2)sc1C(=O)Nc1cccc(F)c1 | 1170 |
| CC(c1ccccc1)N1CC(=O)N(c2ccc(Cl)cc2)[C@@H]2CS(=O)(=O)C[C@@H]21 (some centres undefined) | 853 |
| Cn1cc(-c2nc(C(=O)NCc3ccccc3F)cs2)c2cccnc21 | 908 |
| COCc1cc(=O)n2c(n1)N(Cc1c(C)noc1C)CC2 | 626 |
| Cc1ncc2c(n1)C[C@@H]1CC[C@H]2N1C(=O)Nc1ccc(C)c(F)c1 | 728 |
| Cc1cc2c(c(=O)n(-c3ccc(F)cc3)c(=O)n2CC(=O)Nc2cccc(Br)c2)n1C | 861 |
| CCCC(NC(=O)c1ccsc1)C(=O)Nc1nc2ccccc2[nH]1 (centres undefined) | 667 |
| CN(C)C(CNC(=O)Nc1cccs1)c1ccccc1Cl (centres undefined) | 562 |
| CCOC(=O)c1c(C)[nH]c(C(=O)N2CCC(CC(=O)NC3CCCCCC3)CC2)c1C | 835 |
| CCS(=O)(=O)N1CCC(N2C(=O)[C@H](OCCOC)[C@@H]2c2ccncc2)CC1 | 561 |
| O=C(C1CCCC1)N1[C@H]2CC[C@@H]1c1cnc(-c3ccc(F)cc3)nc1C2 | 984 |
| O=C(COc1ccc2ccccc2c1)Nc1nc(-c2ccccc2)cs1 | 1180 |
